Source: ChEMBL document CHEMBL1201862, “PubChem BioAssay data set” (2004)
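Five compound concentrations were applied to cells in 96-well plates for 48 hours; endpoints were derived by simple linear interpolation of the resulting dose-response curve. Here, GI50 denotes the concentration required for 50% inhibition of growth.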 The source made the active and inactive calls. Cut-off read from the data, not from the text of the source: active = GI50 up to about 1.1 µM and inactive = higher.

What was measured:
Test in all cases: growth of human tumour cells (NCI), 48 h
[1] = tested on: UACC-62
[2] = tested on: HOP-62
[3] = tested on: NCI-H460
[4] = tested on: M14
[5] = tested on: SK-OV-3
[6] = tested on: HCC 2998
[7] = tested on: OVCAR-3
[8] = tested on: ACHN
[9] = tested on: A498
[10] = tested on: HT-29
[11] = tested on: SW-620
[12] = tested on: OVCAR-4
[13] = tested on: 786-0
[14] = tested on: UO-31
[15] = tested on: MOLT-4
[16] = tested on: CAKI-1
[17] = tested on: RPMI-8226
[18] = tested on: IGROV-1
[19] = tested on: SR

Row | SMILES | GI50 [1] | GI50 [2] | GI50 [3] | GI50 [4] | GI50 [5] | GI50 [6] | GI50 [7] | GI50 [8] | GI50 [9] | GI50 [10] | GI50 [11] | GI50 [12] | GI50 [13] | GI50 [14] | GI50 [15] | GI50 [16] | GI50 [17] | GI50 [18] | GI50 [19]
1 | O=C1OC2CCCC[C@@H]2C2C[C@]34CCCCC3[C@@H](C(=O)O4)C12 (some centres undefined) | > 100 µM (inactive) | > 100 µM (inactive) | > 100 µM (inactive) | > 100 µM (inactive) | > 100 µM (inactive) | > 100 µM (inactive) | > 100 µM (inactive) | > 100 µM (inactive) | > 100 µM (inactive) | > 100 µM (inactive) | > 100 µM (inactive) | > 100 µM (inactive) | > 100 µM (inactive) | > 100 µM (inactive) | > 100 µM (inactive) |  |  |  | 
2 | CCCC(=O)c1ccc(=O)n(C)c1 | > 100 µM (inactive) | > 100 µM (inactive) | > 100 µM (inactive) | > 100 µM (inactive) | > 100 µM (inactive) | > 100 µM (inactive) | > 100 µM (inactive) | > 100 µM (inactive) |  | > 100 µM (inactive) | > 100 µM (inactive) | > 100 µM (inactive) | > 100 µM (inactive) | > 100 µM (inactive) | > 100 µM (inactive) | > 100 µM (inactive) | > 100 µM (inactive) | > 100 µM (inactive) | > 100 µM (inactive)
3 | O=C(c1ccc(Cl)cc1)N(C(=S)N1CCN(c2ccccc2)CC1)c1ccccc1 | > 100 µM (inactive) | > 100 µM (inactive) | > 100 µM (inactive) | > 100 µM (inactive) | > 100 µM (inactive) |  | > 100 µM (inactive) | > 100 µM (inactive) |  | > 100 µM (inactive) | > 100 µM (inactive) | > 100 µM (inactive) | > 100 µM (inactive) | > 100 µM (inactive) | > 100 µM (inactive) | > 100 µM (inactive) | > 100 µM (inactive) | > 100 µM (inactive) | > 100 µM (inactive)
4 | O=C(CC(=O)N1N=C(N2c3ccccc3Sc3ccccc32)CC1c1ccccc1)Nc1ccc(Cl)cc1 (centres undefined) | > 100 µM (inactive) | > 100 µM (inactive) | > 100 µM (inactive) | > 100 µM (inactive) | > 100 µM (inactive) | > 100 µM (inactive) | > 100 µM (inactive) | > 100 µM (inactive) | > 100 µM (inactive) | > 100 µM (inactive) | > 100 µM (inactive) | > 100 µM (inactive) | > 100 µM (inactive) | > 100 µM (inactive) |  | > 100 µM (inactive) |  | > 100 µM (inactive) | 
5 | COc1ccc2c3c(c(C(=O)O)oc13)CCC2 | > 100 µM (inactive) | > 100 µM (inactive) | > 100 µM (inactive) | > 100 µM (inactive) | > 100 µM (inactive) | > 100 µM (inactive) | > 100 µM (inactive) | > 100 µM (inactive) |  | > 100 µM (inactive) | > 100 µM (inactive) | > 100 µM (inactive) | > 100 µM (inactive) | 40.7 µM (inactive) | > 100 µM (inactive) |  | > 100 µM (inactive) | > 100 µM (inactive) | > 100 µM (inactive)
6 | O=C(Nc1nc2ncn(CC(COc3ccccc3)OC(=O)c3ccccc3)c2c(=O)[nH]1)c1ccccc1 (centres undefined) | > 100 µM (inactive) | > 100 µM (inactive) |  | > 100 µM (inactive) | > 100 µM (inactive) |  | > 100 µM (inactive) | > 100 µM (inactive) | > 100 µM (inactive) | > 100 µM (inactive) | > 100 µM (inactive) | > 100 µM (inactive) | > 100 µM (inactive) | > 100 µM (inactive) | > 100 µM (inactive) | > 100 µM (inactive) | > 100 µM (inactive) | > 100 µM (inactive) | 58.5 µM (inactive)
7 | O=C1c2ccccc2C2(Br)C(=O)c3ccccc3C12 (centres undefined) | > 100 µM (inactive) | > 100 µM (inactive) | > 100 µM (inactive) | > 100 µM (inactive) | > 100 µM (inactive) | > 100 µM (inactive) | > 100 µM (inactive) | > 100 µM (inactive) |  | > 100 µM (inactive) | > 100 µM (inactive) | > 100 µM (inactive) | > 100 µM (inactive) | > 100 µM (inactive) | > 100 µM (inactive) | > 100 µM (inactive) | > 100 µM (inactive) | > 100 µM (inactive) | 
8 | c1ccc2c(c1)oc1ccc3nsnc3c12 | > 100 µM (inactive) |  | > 10 µM (inactive) | > 100 µM (inactive) | > 100 µM (inactive) | > 100 µM (inactive) | > 100 µM (inactive) | > 100 µM (inactive) | 63.4 µM (inactive) | > 100 µM (inactive) | > 100 µM (inactive) | > 100 µM (inactive) | > 100 µM (inactive) | > 100 µM (inactive) | > 100 µM (inactive) | > 100 µM (inactive) |  | > 100 µM (inactive) | > 100 µM (inactive)
9 | CCOC(=O)c1nc2c3c(ncn2n1)Oc1c(c(-c2ccccc2)nn1-c1ccccc1)C3c1ccc(OC)c(OC)c1 (centres undefined) | 48.6 µM (inactive) | 16.3 µM (inactive) | 22.3 µM (inactive) | > 100 µM (inactive) | 92.9 µM (inactive) | > 100 µM (inactive) | > 100 µM (inactive) | 47 µM (inactive) |  | > 100 µM (inactive) | > 100 µM (inactive) | 6.04 µM (inactive) | 31 µM (inactive) | > 100 µM (inactive) | > 100 µM (inactive) | 50.1 µM (inactive) | 25.9 µM (inactive) | 52.1 µM (inactive) | 51.8 µM (inactive)
10 | CN(CCN(C)C(=O)CCn1ccc(=O)[nH]c1=O)C(=O)CCn1ccc(=O)[nH]c1=O | > 100 µM (inactive) | > 100 µM (inactive) | > 100 µM (inactive) | > 100 µM (inactive) |  | > 100 µM (inactive) | > 100 µM (inactive) | > 100 µM (inactive) |  | > 100 µM (inactive) | > 100 µM (inactive) | > 100 µM (inactive) | > 100 µM (inactive) | > 100 µM (inactive) | > 100 µM (inactive) |  | > 100 µM (inactive) | > 100 µM (inactive) | > 100 µM (inactive)
11 | COc1cc(Br)c(/C=N\c2cccc3cc(OC)c(OC)cc23)cc1OC | 26 µM (inactive) | > 100 µM (inactive) | > 100 µM (inactive) | 30 µM (inactive) | > 100 µM (inactive) | > 100 µM (inactive) | 23.5 µM (inactive) | 51.5 µM (inactive) |  | 31.9 µM (inactive) | 35.6 µM (inactive) | 91.8 µM (inactive) | 22.6 µM (inactive) | 27.9 µM (inactive) | 26.8 µM (inactive) | 41.5 µM (inactive) | 23.9 µM (inactive) | 61.2 µM (inactive) | 15.5 µM (inactive)
12 | O=C(O)CCCNc1ncc2c(n1)-c1ccccc1OC2 | > 100 µM (inactive) | > 100 µM (inactive) | > 100 µM (inactive) | > 100 µM (inactive) | > 100 µM (inactive) |  | > 100 µM (inactive) | > 100 µM (inactive) |  | > 100 µM (inactive) | > 100 µM (inactive) | > 100 µM (inactive) | > 100 µM (inactive) | 68.2 µM (inactive) | > 100 µM (inactive) | > 100 µM (inactive) | > 100 µM (inactive) | 47.8 µM (inactive) | > 100 µM (inactive)
13 | COC(=O)C1(C(C)C)CCc2c(OC)ccc(OC)c2C1=O (centres undefined) | 79.8 µM (inactive) | > 100 µM (inactive) | > 100 µM (inactive) | > 100 µM (inactive) | > 100 µM (inactive) | > 100 µM (inactive) | > 100 µM (inactive) | > 100 µM (inactive) | > 100 µM (inactive) | > 100 µM (inactive) | > 100 µM (inactive) | 96.6 µM (inactive) | > 100 µM (inactive) | > 100 µM (inactive) | 74.3 µM (inactive) | > 100 µM (inactive) | 93.3 µM (inactive) | > 100 µM (inactive) | 
14 | NCCNCCNCc1c2ccccc2c(CNCCNCCN)c2ccccc12 | 34 µM (inactive) | 60.3 µM (inactive) | 31.2 µM (inactive) | > 100 µM (inactive) | > 100 µM (inactive) | 54 µM (inactive) | > 100 µM (inactive) | > 100 µM (inactive) |  | 40.2 µM (inactive) | 90.4 µM (inactive) | 41.6 µM (inactive) | 38.6 µM (inactive) | > 100 µM (inactive) | 36.5 µM (inactive) | > 100 µM (inactive) | 29.6 µM (inactive) | 75 µM (inactive) | 31.3 µM (inactive)
15 | CN(C)CCNC(=O)c1cccc2nc3ccc4ccccc4c3nc12 | 0.126 µM (active) | 0.147 µM (active) | 0.0266 µM (active) | 0.2 µM (active) | 0.144 µM (active) | 0.126 µM (active) | 0.169 µM (active) | 0.0658 µM (active) | 0.0832 µM (active) | 0.0499 µM (active) | 0.0181 µM (active) | 0.114 µM (active) | 0.125 µM (active) | 0.0685 µM (active) | 0.0324 µM (active) | 0.0518 µM (active) |  | 0.0817 µM (active) | 
16 | CSc1ccc2c(cc1=O)C(NC(=O)c1cc(O)c(OC(=O)O)c(O)c1)CCc1cc(O)c(O)c(O)c1-2 (centres undefined) | 14.7 µM (inactive) | 19 µM (inactive) | 20.7 µM (inactive) | 12.1 µM (inactive) | > 89.9 µM (inactive) | > 89.9 µM (inactive) | 18.2 µM (inactive) | 33.8 µM (inactive) | 36.1 µM (inactive) | 20 µM (inactive) | 14 µM (inactive) | 20.2 µM (inactive) | 34 µM (inactive) | 15.3 µM (inactive) | 16.7 µM (inactive) | 19.3 µM (inactive) | 14.5 µM (inactive) | 19.7 µM (inactive) | 
